Reference: paper PMC9237094, “Efficient transdermal delivery of functional protein cargoes by a hydrophobic peptide MTD 1067” (Scientific Reports, 2022)
Where a SMILES comes first, the peptide text is derived from it. [ ]: non-standard residue; d: D form.

How the values were obtained:
[1] = tested on: artificial skin (EpiDermFT); assay: Skin penetration in artificial skin model, confocal fluorescence intensity; type: in vitro ADME, human; details: FITC-labeled (GHRP-6, des(1-3)IGF-I forms) or rhodamine-labeled (PDGF-BB forms), 0.2 mg/mL, 40 μL, 24 h, 32 °C, 5% CO2, at least three images
Experimental: To evaluate skin permeability using confocal microscopy, des(1-3)IGF-I and MTD-des(1-3)IGF-I were labeled with fluorescein isothiocyanate (FITC), and PDGF-BB and MTD-PDGF-BB were labeled with rhodamine. The labeling reaction was carried out with the molar ratio of protein: FITC (or rhodamine) as 1:10 at 4 °C for 2 h. Excess FITC and rhodamine were removed using a PD-10 desalting column (GE Healthcare, USA). After adjusting the concentrations of FITC-labeled GHRP-6, MTD-GHRP-6, des(1-3)IGF-I, MTD-des(1-3)IGF-I, PDGF-BB, and MTD-PDGF-BB to 0.2 mg/mL, respectively, each labeled solution was applied to the artificial skin (EpiDermFT™, MatTek, USA). […] The fluorescence intensity per equivalent area of the dermal layer was calculated for each confocal image. Quantification analysis using fluorescence intensity was calculated based on the fluorescence intensity of confocal microscopy images. Three confocal microscopy images were obtained per each artificial skin, and the fluorescence intensity values were extracted from five areas of the same size per dermis layer in the microscopy images. The relative intensity was calculated by comparing the signals between the samples with and without MTD conjugation.

[2] = tested on: fibroblast cell line NIH 3T3; assay: Cell proliferation activity, NIH 3T3 cells (MTT); type: cell-based, mouse; details: 48 h, absorbance 570 nm, triplicates of at least two independent experiments
Experimental: The cell proliferation activity of PDGF-BB and MTD-PDGF-BB was measured using NIH 3T3 cells, which were cultured in DMEM medium supplemented with 10% Bovine Calf Serum (BCS; Hyclone, USA) in a 96-well plate at 5 × 10^3 cells/well for 24 h. 100 μL of the protein sample, serially diluted with serum-free DMEM medium, was added to each well and cultured at 37 °C for 48 h. After removing the cell culture medium, 100 μL of a mixed solution of 5 mg/mL MTT and serum-free DMEM at a ratio of 1:10 was added to each well. After 4 h of incubation in a CO2 incubator for 4 h, the reaction solution was removed, and 100 μL of DMSO was added to each well. Formazans were sufficiently dissolved in DMSO using a plate shaker to develop a purple color, which was measured at 570 nm using a microplate reader (Spectra Max, Molecular Devices, USA).

Compound | Fluorescence intensity in the dermal layer (permeability) relative to the original cargo [1] | ED50, cell proliferation [2]
CSCC[C@H](NC(=O)[C@H](CCCNC(=N)N)NC(=O)[C@H](C)NC(=O)[C@H](C)NC(=O)[C@H](C)NC(=O)[C@@H]1CCCN1C(=O)[C@H](C)NC(=O)[C@@H](NC(=O)[C@H](C)NC(=O)[C@H](C)NC(=O)CNC(=O)CNC(=O)[C@H](CCCCN)NC(=O)[C@@H](Cc1ccccc1)NC(=O)[C@H](Cc1c[nH]c2ccccc12)NC(=O)[C@H](C)NC(=O)[C@@H](Cc1c[nH]c2ccccc12)NC(=O)[C@@H](N)Cc1c[nH]cn1)C(C)C)C(=O)O [MTD-GHRP-6] (H-H[dW]AW[dF]KGGAAVAPAAARM-OH) | approximately five | 
PDGF-BB: recombinant human platelet-derived growth factor BB, dimeric protein |  | 0.042 µg/mL
